Legend:
human IBAT = target: T1, human IBAT (Homo sapiens, UniProt Q12908); assay: In vitro assay using Cos 7 cells, transiently expressed human IBAT; format: cell-based; details: [3H]-taurocholate 8 μM uptake, 37° C., 60 minutes
T1 sequence (Q12908 1-348): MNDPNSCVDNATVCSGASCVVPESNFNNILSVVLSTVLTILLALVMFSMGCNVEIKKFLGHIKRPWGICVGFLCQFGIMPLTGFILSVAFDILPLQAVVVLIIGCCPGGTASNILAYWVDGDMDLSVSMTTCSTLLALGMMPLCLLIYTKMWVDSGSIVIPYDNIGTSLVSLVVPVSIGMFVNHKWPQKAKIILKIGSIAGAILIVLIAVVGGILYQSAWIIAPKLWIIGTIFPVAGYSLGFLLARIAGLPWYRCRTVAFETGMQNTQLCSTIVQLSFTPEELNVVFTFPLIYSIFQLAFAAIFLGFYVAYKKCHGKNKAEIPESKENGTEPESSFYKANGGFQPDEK
Outline: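 Cos 7 cells transfected with human or rat IBAT cDNA were assayed one day later in Hanks buffer with 25 mM glucose and 10 mM HEPES (pH 7.4) containing compound. [^3H]-taurocholate (8 μM final) uptake ran 60 min at 37° C. Cells were washed with 1 mM taurocholate, lysed in NaOH, and counted by liquid scintillation.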

Caco-2 cell = assay: Gastrointestinal toxicity: cytotoxicity against Caco-2 cell (LDH activity); format: cell-based, human; details: 2 hours, LDH activity in medium relative to cell lysis agent = 100%
Outline: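 Caco-2 cells were grown 48 h, then exposed to compound in medium for 2 h. LDH released into the medium was measured, and cytotoxicity was expressed as activity relative to lysis-agent-treated cells (100%).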

[1] = tested on: Wistar rats given choline-deficient food; assay: Steatohepatitis model: AST and ALT in blood; format: in vivo, rat; details: 3 mg/kg oral once a day for 2 weeks, n = 4, average ± standard error; for AST: control group (n = 6) 180 ± 46; for ALT: control group (n = 6) 245 ± 57
Excerpt: In the present Test Example, a steatohepatitis model was employed with reference to the method of Okan A et al. (Dig. Dis. Sci., 47:2389-2397, 2002).
That is, choline-deficient food (supplied from Oriental Yeast Co., Ltd.) was given to Wistar rats at 7 weeks of age for two weeks to prepare a steatohepatitis model. The test compound was suspended in an aqueous solution of 0.5% methylcellulose (supplied from Wako Pure Chemical Industries), and the aqueous solution of 0.5% methylcellulose (supplied from Wako Pure Chemical Industries) was used as the control. They were orally administered once a day for consecutive 2 weeks. The blood was collected from the abdominal aorta on the day after the final drug administration. AST (GOT) and ALT (GPT) in the blood were measured using the measurement kits (GOT II-HA Test Wako and GPT II Test Wako, supplied from Wako Pure Chemical Industries) with an automatic analyzer (Nitech ANALAYZER SUPER Z818).

KKA^y/Ta Jcl male mice = assay: Obesity and fatty liver model: body weight and liver triglyceride; format: in vivo, mouse; details: for BODY WEIGHT (g) BEFORE ADMINISTRATION: 1 mg/kg group, baseline; for BODY WEIGHT (g) DIFFERENCE / BODY WEIGHT (g) TWO WEEKS / LIVER TRIGLYCERIDE: 1 mg/kg once a day for 2 weeks
Procedure: In the present Test Example, an obesity and fatty liver model was employed with reference to the method described in WO02/09757.
That is, KKA^y/Ta Jcl male mice at 10 weeks of age were used as obese mice (N=4 to 7). The test compound was dissolved or suspended in the aqueous solution of 1% HCO 60 (supplied from Nippon Chemicals). The aqueous solution of 1% HCO 60 (supplied from Nippon Chemicals) was used as the control. The consecutive administration was performed once a day for 2 weeks, and body weight was measured daily and compared with the body weight on the day before the administration. On the day after the final administration, the liver was removed, and a triglyceride concentration in liver tissue was measured using a measurement kit (Triglyceride Test Wako, supplied from Wako Pure Chemical Industries). The results are shown in the following Table 14 (Tables 14-1 to 14-3).

rats dosed cholic acid = assay: Lowering effect on bile acid concentrations in portal vein blood in rats dosed cholic acid; format: in vivo, rat
Outline: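 Fasted male SD (IGS) rats aged 7–9 weeks received oral cholic acid (200 mg/kg) plus test compound in water with 0.05% or 1% surfactant (n=6). Portal vein serum total bile acid measured 2 h post-dose; reduction rate (%) calculated against cholic acid-only controls set as 100%.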

[2] = Table 14-2, control group 44.1 ± 0.6
[3] = Table 14-2, control group 0.7 ± 0.4
[4] = Table 14-2, control group 44.8 ± 0.9
[5] = Table 14-2, control group 103 ± 19
[6] = 0.1 mg/kg oral with cholic acid 200 mg/kg, portal vein serum total bile acid 2 hours after, control = 100%, surfactant HCO-60 (##)
[7] = Table 14-1, control group 42.8 ± 0.4
[8] = Table 14-1, control group 42.0 ± 0.7
[9] = Table 14-1, control group 94 ± 18
[10] = Table 14-1, control group −0.8 ± 0.5

Compound | IC50 (human IBAT) [nM] | CELL TOXICITY AGAINST Caco2 3 μM (Caco-2 cell) [%] | CELL TOXICITY AGAINST Caco2 10 μM (Caco-2 cell) [%] | CELL TOXICITY AGAINST Caco2 30 μM (Caco-2 cell) [%] | AST [1] [IU/L] | ALT [1] [IU/L] | BODY WEIGHT (g) BEFORE ADMINISTRATION (KKA^y/Ta Jcl male mice; [2]) [g] | BODY WEIGHT (g) DIFFERENCE (KKA^y/Ta Jcl male mice; [3]) [g] | BODY WEIGHT (g) TWO WEEKS (KKA^y/Ta Jcl male mice; [4]) [g] | LIVER TRIGLYCERIDE (KKA^y/Ta Jcl male mice; [5]) [mg/g] | BILE ACID REDUCTION RATE (%) IN RAT MODEL WITH CHOLIC ACID LOADING (rats dosed cholic acid; [6]) [%] | BILE ACID REDUCTION RATE (%) IN RAT MODEL WITH CHOLIC ACID LOADING (rats dosed cholic acid; 0.1 mg/kg oral, surfactant HCO-60 0.1%, cholic acid 200 mg/kg, portal vein blood 2 hours after administration) [%] | BODY WEIGHT (g) BEFORE ADMINISTRATION (KKA^y/Ta Jcl male mice; [7]) [g] | BODY WEIGHT (g) TWO WEEKS (KKA^y/Ta Jcl male mice; [8]) [g] | LIVER TRIGLYCERIDE (KKA^y/Ta Jcl male mice; [9]) [mg/g] | BODY WEIGHT (g) DIFFERENCE (KKA^y/Ta Jcl male mice; [10]) [g] | BILE ACID REDUCTION RATE (%) IN RAT MODEL WITH CHOLIC ACID LOADING (rats dosed cholic acid; 0.1 mg/kg oral, surfactant Tween 20 0.05%, cholic acid 200 mg/kg, portal vein blood 2 hours after administration) [%]
C#CC[N+](C)(Cc1ccccc1)Cc1ccc(NC(=S)Nc2cccc(C3NC(CCCC)(CCCC)CS(=O)(=O)c4ccc(N(C)C)cc43)c2)cc1.[Br-] (racemic) [EXAMPLE 3448] | 37 | <1 | <1 | <1 | 134 ± 23 | 143 ± 79 | 44.1 ± 0.7 | -2.0 ± 0.7 | 42.1 ± 3.2 | 74 ± 8 | 25 |  |  |  |  |  | 
CCCCC1(CCCC)CS(=O)(=O)c2ccc(N(C)C)cc2C(c2cccc(NC(=S)Nc3ccc(C[N+](C)(C)Cc4ccccc4)cc3)c2)N1.[Br-] (stereo not shown) [EXAMPLE 3440] | 37 | <1 | <1 | <1 | 125 ± 34 | 167 ± 93 | 44.6 ± 0.8 | -0.7 ± 1.0 | 43.9 ± 1.8 | 88 ± 6 |  | 26 |  |  |  |  | 
CCCCC1(CCCC)CS(=O)(=O)c2ccc(N(C)C)cc2C(c2cccc(NC(=S)Nc3ccc(C[n+]4cccc(CCC(=O)OC)c4)cc3)c2)N1.[Br-] (stereo not shown) [EXAMPLE 3752] | 41 | <1 | <1 | <1 | 69 ± 98 | 88 ± 45 | 43.8 ± 1.2 | -2.3 ± 0.9 | 41.5 ± 1.0 | 56 ± 23 | 42 |  |  |  |  |  | 
CCCCC1(CCCC)CS(=O)(=O)c2ccc(N(C)C)cc2C(c2cccc(NC(=S)Nc3ccc(C[n+]4cccc(CCCO)c4)cc3)c2)N1.[Br-] (stereo not shown) [EXAMPLE 3747] | 45 | <1 | <1 | <1 | 63 ± 86 | 102 ± 50 | 44.3 ± 0.8 | -2.1 ± 1.0 | 42.2 ± 1.8 | 47 ± 23 | 40 |  |  |  |  |  | 
CCCCC1(CCCC)CS(=O)(=O)c2ccc(N(C)C)cc2C(c2cccc(NC(=S)Nc3ccc(C[n+]4ccc(C(C)(C)C)cc4)cc3)c2)N1.[Br-] (stereo not shown) [EXAMPLE 3713] | 37 | <1 | <1 | <1 | 77 ± 37 | 118 ± 36 | 44.0 ± 1.1 | -2.5 ± 0.6 | 41.5 ± 2.4 | 59 ± 33 | 32 |  |  |  |  |  | 
CCCCC1(CCCC)CS(=O)(=O)c2ccc(N(C)C)cc2C(c2cccc(NC(=S)CCCCC[N+]34CCC(CC3)CC4)c2)N1.[Br-] (stereo not shown) [EXAMPLE 1, 1-{5-[3-(3,3-dibutyl-7-dimethylamino-1,1-dioxo-2,3,4,5-tetrahydro-1,4-benzothiazepine-5-yl)phenylthiocarbamoyl]pentyl}-1-azoniabicyclo[2.2.2]octane bromide] |  |  |  |  |  |  |  |  |  |  |  |  | 43.0 ± 0.5 | 41.0 ± 0.6 | 71 ± 13 | -1.9 ± 0.3 | 51
CCCCC1(CCCC)CS(=O)(=O)c2ccc(N(C)C)cc2C(c2cccc(NC(=S)Nc3ccc(C[N+]4(Cc5ccccc5)CCC(O)CC4)cc3)c2)N1.[Br-] (stereo not shown) [EXAMPLE 3605] | 39 | <1 | <1 | <1 | 80 ± 34 | 121 ± 36 |  |  |  |  | 24 |  | 42.9 ± 1.1 | 41.4 ± 1.0 | 65 ± 7 | -1.5 ± 0.4 | 
CCCCC1(CCCC)CS(=O)(=O)c2ccc(N(C)C)cc2C(c2cccc(NC(=S)Nc3ccc(C[N+]45CCC(c6ccccc6)(CC4)CC5)cc3)c2)N1.[Br-] (racemic) [EXAMPLE 3696] | 39 | <1 | <1 | <1 | 98 ± 23 | 145 ± 34 | 43.5 ± 1.3 | -1.3 ± 0.3 | 42.2 ± 2.2 | 76 ± 12 | 13 |  |  |  |  |  | 

Source: patent US20120015925A1, “NOVEL BENZOTHIAZEPINE AND BENZOTHIEPINE COMPOUNDS” (ASAHI KASEI PHARMA CORPORATION, priority 2004, published 2012)
